The values below are quoted from earlier work in patent US10799449B2, “Medicinal delivery system and related methods” (JSRNTI, LLC, priority 2006, dated 2020).

The conditions of data set [1]: in water.

Turning to Isomalt, in data set [1], the Solubility is 38 grams/100 grams water.

For the compound `CN1CCCC1c1cccnc1` (stereo not drawn) [Nicotine], for the setting “buffered saliva pH of 9.0”, the “Available nicotine in an un-ionized state” value is listed as “approximately 91%”. For the same compound, the pKa entry (weak base) was “approximately 8.0”. Under “without buffer, normal saliva pH of 6.5”, the “Available nicotine in the un-ionized form” value was 3%.

Turning to `OC[C@@H](O)[C@@H](O[C@H]1O[C@H](CO)[C@@H](O)[C@H](O)[C@H]1O)[C@H](O)[C@@H](O)CO` [Maltitol], the Solubility in data set [1] was 71 grams/100 grams water.

Turning to `OC[C@@H](O)[C@@H](O)[C@H](O)[C@H](O)CO` [Mannitol], the Solubility in data set [1] is given as 23 grams/100 grams water.

With `OC[C@@H](O)[C@H](O)[C@@H](O)CO` [Xylitol], the Solubility in data set [1] is given as 70 grams/100 grams water. In the case of `OC[C@@H](O)[C@@H](O)[C@H](O)[C@@H](O)CO` [Sorbitol], in data set [1], the Solubility is given as 75 grams/100 grams water.

Turning to `OC[C@@H](O)[C@@H](O[C@@H]1O[C@H](CO)[C@H](O)[C@H](O)[C@H]1O)[C@H](O)[C@@H](O)CO` [Lactitol], the Solubility in data set [1] is 55 grams/100 grams water.
